pKi: −log10 of the molar value.
Target: T1, human dopamine D4 receptor (Homo sapiens, UniProt P21917)
T1 construct: purchased BioSignal, Inc. (Montreal, Canada)
Assay: Binding affinity at the human dopamine D4 receptor
Conditions: Table 3d; * = >50000; read-out: hD4 Ki
Excerpt: Other receptors: Cell membranes expressing human dopamine D1, D2, D4 and rat D3 receptors were purchased through BioSignal, Inc. (Montreal, Canada). Binding assays using the histamine H1 receptor; dopamine receptors; and α1A, α1B, and α2 adrenergic receptors may be carried out according to the procedures described in U.S. Pat. No. 5,780,485, the disclosure of which is hereby incorporated by reference in its entirety into this application. Binding assays using the dopamine D5 receptor may be carried out according to the procedures described in U.S. Pat. No. 5,882,855, the disclosure of which is hereby incorporated by reference in its entirety into this application. Binding assays for the human α1D adrenergic receptor may be carried out according to the procedures described in U.S. Pat. No. 6,156,518, the disclosure of which is hereby incorporated by reference in its entirety into this application.

T1 sequence (P21917 whole entry): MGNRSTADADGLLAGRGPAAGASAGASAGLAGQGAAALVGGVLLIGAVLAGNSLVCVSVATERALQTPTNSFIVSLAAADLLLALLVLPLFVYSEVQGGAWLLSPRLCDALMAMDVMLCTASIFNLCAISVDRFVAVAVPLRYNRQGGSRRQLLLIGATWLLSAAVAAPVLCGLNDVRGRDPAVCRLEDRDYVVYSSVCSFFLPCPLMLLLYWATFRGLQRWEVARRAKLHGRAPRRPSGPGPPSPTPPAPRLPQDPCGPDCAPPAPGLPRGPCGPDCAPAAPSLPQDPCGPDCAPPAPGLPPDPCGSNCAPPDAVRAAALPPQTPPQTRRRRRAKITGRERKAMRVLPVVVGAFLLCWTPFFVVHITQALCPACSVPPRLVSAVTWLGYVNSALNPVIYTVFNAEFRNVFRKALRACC

COCC1=C(C(=O)OC)[C@H](c2ccc(F)c(F)c2)N(C(=O)NCCCN2CCC(c3cccc(NC(C)=O)c3)CC2)C(=O)N1 [Example 10, (+)-1,2,3,6-TETRAHYDRO-1-{N-[4-(3,-ACETAMIDO)-PHENYLPIPERIDIN-1-YL]PROPYL}CARBOXAMIDO-4-METHOXYMETHYL-6-(3,4-DIFLUORO-PHENYL)-2-OXOPYRIMIDINE-5-CARBOXYLIC ACID METHYL ESTER]
pKi: < 4.30

Reference: patent US20040038855A1 (priority 1999, published 2004)
